≈ marks a conversion by molar mass, not a printed value. Read-outs that look alike come from different tables or passages of the source.
Experiments:
S. aureus [1] = experiment: Minimum Inhibitory Concentration (MIC) assay; format: cell-based; conditions: Staphylococcus aureus; in solution, 37° C., 18 to 24 h, n=3
Protocol: A glycerol stock of S. aureus was struck on a tryptic soy agar plate and incubated overnight at 37° C. Single colonies were then picked and diluted into tryptic soy broth (TSB) and left to grow overnight. Next, the culture was diluted approximately 40-fold into fresh TSB and grown to mid-log phase (OD600=0.4 to 0.8). 5 mg/mL stock solutions of Vancomycin-TCO and vancomycin in DMSO were serially diluted two-fold with TBS across the wells of a non-treated 96-well plate, with concentrations ranging from 0.0625 to 128 μg/mL. The mid-log phase cultures were diluted to a final concentration of 5×10^5 colony forming units (CFU)/mL in TSB then 50 μL was added to each antimicrobial-containing well, giving a final antimicrobial concentration range of 0.031 to 64 μg/mL. All the plates were covered and incubated at 37° C. for 18 to 24 h. The MIC was defined as the lowest compound concentration at which no bacterial growth was visible (n=3).

S. aureus biofilm [2] = experiment: Biofilm crystal violet assay; format: cell-based; conditions: coated surfaces incubated with S. aureus for 72 hours
Protocol: 100 μL of freshly prepared coating solution containing 10 mM DOPATet and 2500 U/mL tyrosinase in PBS was added to the wells of a 96-well plate and incubated at room temperature for 6 hours. […] As described elsewhere herein, S. aureus was grown overnight in TSB, then diluted 1:100 in TSB containing 3% glucose. 300 μL of the dilute bacteria was added to the coated well plate, which was then incubated at 37° C. for 72 hours. After incubation the media was decanted, and the plate was air dried for 5 minutes. 200 μL of 0.9% NaCl in sterile water was gently added to the wells, then decanted, and air dried for 5 minutes. The wells were washed twice more with 0.9% NaCl, and after the final drying, 200 μL methanol was added to each well. The plate was left at room temperature for 15 minutes, then the methanol was decanted and the plate air dried for 5 minutes. 100 μL of 3% crystal violet in sterile water was added to the wells and incubated at room temperature for 20 minutes. The dye was decanted, and the plate air dried. The wells were washed three times with 0.9% NaCl as above. After the final air drying, 150 μL of methanol was added to the wells, and mixed to allow for dissolution of the crystal violet. The dye solution was then decanted and diluted 1:10 in methanol, then the absorbance at 590 nm was recorded.

[3] = Coating stability in human serum, ALP activity on p-NPP afterwards; format: biochemical; conditions: DOPA-Tet coated glass vial, 5 days at 37° C. in human serum, then 1 mg/mL p-NPP 1 hour
Protocol: Two additional 4 mL glass vials were prepared and incubated in human serum. Both samples were coated with 10 mM DOPA-Tet, and one was grafted with 0.2 mM ALP-TCO. Both samples were incubated in 1 mL of human serum from clotted whole blood (Millipore-Sigma) for 5 days at 37° C. After incubation, both samples were washed with PBS and 1 mL of 1 mg/mL p-NPP was added. After incubation for 1 hour at room temperature, both samples were imaged and their absorbance at 405 nm was measured on a spectrophotometer (NanoDrop One).

S. aureus biofilm [4] = experiment: Biofilm microscopy (PI/SYTO 9, CLSM); format: cell-based; conditions: coated microscopy dishes, PI/SYTO 9 staining
Protocol: 200 μL of freshly prepared coating solution containing 10 mM DOPA-Tet and 2500 U/mL tyrosinase in PBS was added to a glass bottom culture dush. The dish was incubated at room temperature for 6 hours, during which a coating was formed. […] S. aureus was grown overnight in TSB, then diluted 1:100 in TSB containing 3% glucose. 300 μL of the dilute bacteria was added to the microscope dishes, which were then placed in a 37° C. incubator. The samples were incubated for 72 hours, with the media being topped up every day to account for evaporation. The media was decanted and then the dishes were washed with 200 μL of 0.9% NaCl, followed by a 1-hour incubation at room temperature with 250 μL of TSB containing Syto9 (10 μM) and PI (10 μM). The dyes were then decanted and the samples were washed again with saline. Finally, 150 μL of HBSS was added, and the dishes were imaged on a Leica SP8 confocal microscope.

[5] = Colorimetric assay using GOx/HRP on DOPA-Tet coated microcentrifuge tubes; format: biochemical; conditions: tubes coated with 10 mM DOPA-Tet, treated with enzymes and washed; 1 mM D-glucose and 1 mM ABTS, 1 hour
Protocol: TCO-conjugated GOx (GOx-TCO) and HRP (HRP-TCO) were prepared as described above. 0.2 mL microcentrifuge tubes were coated with 10 mM DOPA-Tet. The tubes were washed with PBS and sonicated to help remove any loose aggregates. The tubes were grafted with either 0.2 mM GOx-TCO and 0.2 mM HRP-TCO, or 0.2 mM GOx and 0.2 mM HRP. […] Absorbance at 405 nm was measured on a spectrophotometer (NanoDrop One). Three replicates of each set of enzymes, TCO-conjugated or native, were prepared and measured.

[6] = Coating stability at various pH; format: physicochemical; conditions: coated glass vials, 5 days at 37° C.
Protocol: Six 4 mL glass vials (VWR International) were coated with 10 mM DOPA-Tet and incubated for 5 days at 37° C. in 1 mL of either 50 mM MES pH 4.5 (Millipore-Sigma), 100 mM IVIES pH 6.0, PBS, TBS 8.5, 100 mM NaHCO3 pH 9.5 (Millipore-Sigma) or 10% DMSO (Millipore-Sigma) in PBS. After incubation, samples were rinsed with Milli-Q water, dried, and imaged.

S. aureus [7] = experiment: Planktonic bacterial growth inhibition at the surface (PrestoBlue); format: cell-based; conditions: coated 96-well plate, incubated overnight, resazurin readout
Protocol: The wells of a non-treated clear 96 well culture plate were either left uncoated or coated with 10 mM DOPA-Tet and then incubated with either vancomycin-TCO, vancomycin, or PBS. […] 100 μL of culture was added to the wells and the plate was covered and incubated at 37° C. for 18 hours, after which 10 μL of PrestoBlue™ was added to each well. After 1 hour incubation, the media was transferred to clean wells and absorbance at 570 nm was recorded using a plate reader.

[8] = Colorimetric assay using ALP on DOPA-Tet coated microcentrifuge tubes; format: biochemical; conditions: tubes coated with 10 mM DOPA-Tet, treated with enzyme and washed; 1 mg/mL p-NPP, 1 hour, room temperature
Protocol: For the colorimetric assay using ALP, TBS was chosen as the buffer for washing and testing, because the high concentration of phosphate in PBS could affect the phosphatase activity of ALP. TCO-conjugated ALP (ALP-TCO) was prepared as described elsewhere herein. 0.2 mL microcentrifuge tubes (Bio-Rad Laboratories) were coated with 10 mM DOPA-Tet. The tubes were washed thoroughly with TBS 7.5 and sonicated to remove any loose aggregates. The tubes were grafted with either 0.2 mM ALP-TCO or 0.2 mM ALP, both in TBS 7.5. 50 μL of 1 mg/mL p-NPP in TBS 8.5 was added to each tube and incubated at room temperature for 1 hour. Absorbance at 405 nm was measured on a spectrophotometer (NanoDrop One). Three replicates for each grafted molecule, ALP-TCO or ALP, were prepared and measured.

[9] = Stability of grafted enzymes after repeated use; format: biochemical; conditions: enzymes grafted on DOPA-Tet coated tubes, repeated substrate and buffer incubations with washes
Protocol: Eight 0.2 mL microcentrifuge tubes were coated with 50 μL of 10 mM DOPA-Tet. The tubes were washed thoroughly with TBS (pH 7.5). Three tubes each were grafted with 50 μL of either 0.1 mM ALP-TCO or 0.1 mM GOx-TCO and 0.1 mM HRP-TCO. The two remaining coated tubes were not grafted with any enzymes. The tubes were washed thoroughly with TBS (pH 7.5). 25 μL of 1 mg/mL p-NPP in TBS (pH 8.5) was added to the ALP-grafted tubes and 25 μL 1 mM ABTS and 1 mM D-glucose in PBS (pH 7.4) was added to the GOX/HRP grafted tubes. Each substrate solution was also added to one of the tubes that was not grafted (for controls). […] Absorbance at 405 nm was measured on a spectrophotometer (Thermo Scientific NanoDropOneC). All tubes were then thoroughly washed with TBS (pH 7.5). Then TBS (pH 8.5) was added to the ALP-grafted tubes and PBS (pH 7.4) was added to the GOX/HRP grafted tubes. Each buffer solution was also added to one of the tubes that was not grafted. […] The buffer solutions were then removed from the tubes. This process of incubating with substrate and then buffer solutions was repeated for all tubes 9 more times, for a total of 10 cycles.

[10] = Michaelis-Menten kinetics of native and TCO-conjugated ALP (UV-Vis, 405 nm); format: biochemical; conditions: 5 nM enzyme, p-NPP in TBS 8.5, room temperature
Protocol: Both assays produce an increase in absorbance at 405 nm, the evolution of which at room temperature was measured on a microplate reader (SpectraMax iD3) over 1 hour. […] These trials were omitted from data analysis. Velocities were estimated by linear regression, and Michaelis-Menten parameters were calculated using both Lineweaver-Burk plots and non-linear least squares regression. R-squared values for all regressions were above 0.95 with the vast majority being above 0.98.

Compound | MIC (S. aureus [1]) | biofilm formation (crystal violet, absorbance at 590 nm) (S. aureus biofilm [2]) | ALP activity on p-NPP after incubation in human serum [3] | biofilm formation (CLSM) (S. aureus biofilm [4]) | activity (absorbance at 405 nm) [5] | coating stability ([6]; 10% DMSO in PBS) | coating stability ([6]; buffered from pH 4.5 to 8.5) | coating stability ([6]; pH 9.5) | growth of S. aureus (planktonic) (S. aureus [7]) | activity (absorbance at 405 nm) [8] | loss of activity on repeated use (absorbance at 405 nm) [9] | Km ([10]; Lineweaver-Burk plots, read-out: Km by LB) | Km ([10]; non-linear least squares regression, read-out: Km by nls)
CN[C@H](CC(C)C)C(=O)N[C@H]1C(=O)N[C@@H](CC(N)=O)C(=O)N[C@H]2C(=O)N[C@H]3C(=O)N[C@H](C(=O)N[C@H](C(=O)NCCOCCOCCOCCOCCOCCOCCOCCOCCNC(=O)OC4CC/C=C/CCC4)c4cc(O)cc(O)c4-c4cc3ccc4O)[C@H](O)c3ccc(c(Cl)c3)Oc3cc2cc(c3O[C@@H]2O[C@H](CO)[C@@H](O)[C@H](O)[C@H]2O[C@H]2C[C@](C)(N)[C@H](O)[C@H](C)O2)Oc2ccc(cc2Cl)[C@H]1O (some centres unmarked) [vancomycin-TCO] | 16 µg/mL (≈ 8.02 µM) | – | – | – | – | – | – | – | – | – | – | – | –
Cc1nnc(-c2ccc(OCCOCCOCCOCCNC(=O)C(N)Cc3ccc(O)c(O)c3)cc2)nn1 (racemic) [DOPA-Tet, (±)-2-amino-3-(3,4-dihydroxyphenyl)-N-(2-(2-(2-(2-(4-(6-methyl-1,2,4,5-tetrazin-3-yl)phenoxy)ethoxy)ethoxy)ethoxy)ethyl)propanamide] | – | successfully inhibited biofilm formation | did not show any visually detectable activity | no biofilm was observed | −0.07 OD | slightly solubilized | No degradation of the coating was observed | delamination and degradation of the coating were observed | not antimicrobial | 0.05 OD | – | – | –
ALP: alkaline phosphatase, native enzyme (SEQ ID NO:2) | – | – | – | – | – | – | – | – | – | 1.66 OD | little loss of activity over 10 cycles | 281 µM | 207 µM

Reference: patent US12454550B2, “Compositions and methods for bioorthogonal surface coating” (Rutgers, The State University of New Jersey, priority 2021, dated 2025)
